Source: EP0059258A1, “Pharmaceutical preparations comprising polyprenyl compounds, especially as anti-cancer agents, and pharmaceutical compositions for the prevention and treatment of cancer and skin diseases” (Eisai Co., Ltd., priority 1980, dated 1982)

test system: papillomata; experiment: Anti-cancer activity: mouse skin papilloma test (7,12-dimethylbenzanthracene / croton oil induced); format: in vivo, mouse (ICR strain, female); conditions: administered orally as 20 mg/ml solution in groundnut oil, 10 times for 14 days; total diameter on the 14th day vs. prior to administration
Protocol: A mouse (ICR strain, female, 50 days age) was shaved at the back of neck (to the extent of 5 cm^2). 7,12-Dimethylbenzo-[2]-anthracene was dissolved in acetone to give-75 mg /100 ml. solution. The so prepared solution was applied to the mouse on the 60th day of age and further on the 75th day of aqe in the amount of 0.2 ml per mouse.
Croton oil was dissolved in acetone to give 250 mg/ 100 ml solution, and the so prepared solution was applied to the mouse in the amount of 0.2 ml per mouse,-twice a week until the treatment was started. When 3 - 7 papillomata (diamether of 3 - 8 mm for each, and total diameter of 30 - 60 mm ) were produced for a mouse, the treatment was started.
The compound to be tested (test compound) was dissolved in groundnut oil to give 20' mg /ml solution, and administered orally to the mouse. The solution was administered 10 times for 14 days (once a day), and the diameters of the papillomata were measured on the 14th day to determine the total diameter for each mouse. Ratio of increase or decrease of the papillomata was calculated from the total diameter on the 14th day and the total diameter measured prior to the starting of administration of the test compound. This value was adopted' for evaluating the anti-cancer activity.

Point of comparison: CCOC(=O)C=C(C)C=CC=C(C)CCCC(C)CCC=C(C)C (stereo not drawn) [(3), ethyl 3,7,11,15-tetramethyl-2,4,6,14-hexadecatetra-enoate], “Ratio of increase or decrease of papillomas(%)” value −10.2%. Against it:
- CCOC(=O)C=C(C)C=CC=C(C)CCC=C(C)CCC=C(C)C [(6), ethyl 3,7,11,15-tetramethyl-2,4,6,10,14-hexadeca-pentaenoate] — lower, −17.5%
- CC(=O)C=CC=C(C)CCC=C(C)CCC=C(C)CCC=C(C)C [(7), 6,10,14,18-tetramethyl-3,5,9,13,17-nonadecapentaen-2-on] — lower, −12.7%
- CC(=O)CCC=C(C)CCC=C(C)CCC=C(C)CCC=C(C)C [(9), 6,10,14,18-tetramethyl-5,9,13,17-nonadecatetraen-2-on] — higher, −8.2%
- CC(C)=CCCC(C)=CCCC(C)=CCCC(C)=CC(=O)O [(8), 3,7,11,15-tetramethyl-2,6,10,14-hexadecatetraenoic acid] — higher, −6.5%
- CC(C)=CCCC(C)=CC=CC(C)=CC=CC(C)=CC(=O)O [(4), 3,7,11,15-tetramethyl-2,4,6,8,10,14-hexadecahexaeno-ic acid] — lower, −26.3%
- CC(C)=CCCC(C)CCCC(C)=CC=CC(C)=CC(=O)O (stereo not drawn) [(2), 3,7,11,15-tetramethyl-2,4,6,14-hexadecatetraenoic acid] — lower, −19.5%
- CC(C)=CCCC(C)=CCCC(C)=CCCC(C)=CC=CC(C)=CC(=O)O [(1), 3,7,11,15,19-pentamethyl-2,4,6,10,14,18-eicosahexa-enoic acid] — lower, −24.0%
- CC(C)=CCCC(C)=CCCC(C)=CC=CC(C)=CC(N)=O [(5), 3,7,11,15-tetramethyl-2,4,6,10,14-hexadecapentaeno-amide] — lower, −25.5%
